We go through 13 compounds from US4496551A (priority 1983, dated 1985).

Holding throughout (assay type): in vivo
Assay [1] relates to Puccinia recondita var. tritici. In words: wheat leaf rust control on wheat seedlings. The conditions noted are these: 100 ppm, sprayed day before inoculation. As to the method:
(§1) Compounds of this invention were dissolved in acetone in an amount equal to 6% of the final volume and then suspended at a concentration of 100 ppm in purified water containing 250 ppm of the surfactant TREM 014 (polyhydric alcohol esters). This suspension was sprayed to the point of run-off on wheat seedlings. The following day, the plants were inoculated with a spore suspension of Puccinia recondita var. tritici, causal agent of wheat leaf rust, and incubated in a saturated humidity chamber at 20° for 24 hours and then in a growth room for an additional 7 days, when disease ratings were made. Treated plants from successful treatments had few or no rust pustules while the untreated plants had numerous rust pustules on each leaf.

The test system of assay [2] is Erysiphe cichoracearum. Nature of the assay: cucumber powdery mildew control on cucumber seedlings. Particulars: Golovinomyces cichoracearum, 168 h, 7 days. As to the method:
Compounds of the previous examples were again dissolved in acetone in an amount equal to 6% of the final volume and then suspended at a concentration of 100 ppm in purified water containing 250 ppm of the surfactant TREM 014 (polyhydric alcohol esters). This suspension was sprayed to the point of run-off on cucumber seedlings. The following day, the plants were inoculated with a spore suspension of the fungus Erysiphe cichoracearum, causal agent of cucumber powdery mildew, and incubated in a growth room for 7 days. Disease ratings were then made. Treated plants from successful treatments had little or no powdery mildew in contrast to untreated plants which were covered with powdery mildew.

The test system of assay [3] is Venturia inaequalis. Nature of the assay: apple scab control on apple seedlings. Particulars: Venturia inaequalis; 100 ppm. As to the method:
as §1, with “apple” for “wheat”, “the fungus Venturia inaequalis,” for “Puccinia recondita var. tritici,”, “apple scab,” for “wheat leaf rust,”, “10-12 days.” for “7 days, when disease ratings were made.”, “apple scab lesions when compared to” for “rust pustules while the”, “which were covered with scab lesions.” for “had numerous rust pustules on each leaf.”

Assay [4] concerns Helminthosporium maydis. In words: southern corn leaf blight control on corn seedlings. Particulars: Bipolaris maydis, 168 h. Here is the method:
Compounds of the previous example were again dissolved in acetone in an amount equal to 6% of the final volume and then suspended at a concentration of 100 ppm in purified water containing 250 ppm of the surfactant TREM 014 (polyhydric alcohol esters). This suspension was sprayed to the point of run-off on corn seedlings. The following day, the plants were inoculated with a spore suspension of Helminthosporium maydis, causal agent of southern corn leaf blight, and incubated in a saturated humidity chamber at 20° for 24 hours and then in a growth room for an additional 7 days, when disease ratings were made. Treated plants from successful treatments had few lesions while the untreated plants had numerous lesions on each leaf.

Assay [5] has as its system Cercospora arachidicola. In words: peanut early leafspot control on peanut seedlings. The conditions noted are these: Mycosphaerella arachidis, 336 h. As to the method: Compounds of the previous examples were again dissolved in acetone in an amount equal to 6% of the final volume and then suspended at a concentration of 100 ppm in purified water containing 250 ppm of the surfactant TREM 014 (polyhydric alcohol esters). This suspension was sprayed to the point of run-off on peanut seedlings. The following day, the plants were inoculated with a spore suspension of Cercospora arachidicola, causal agent of peanut early leafspot, and incubated in a saturated humidity chamber at 27° for 24 hours and then in a growth room for an additional 14 days, when disease ratings were made. Treated plants from successful treatments had few or no leafspots while the untreated plants had numerous leafspots on each leaf.

For assay [6], the system named is Rhizoctonia solani. In words: rice sheath blight control on rice seedlings. The conditions noted are these: Rhizoctonia solani, 168 h, 7 days. Here is the method: Several compounds of the previous examples were again dissolved in acetone in an amount equal to 6% of the final volume and then suspended at a concentration of 100 ppm in purified water containing 250 ppm of the surfactant TREM 014 (polyhydric alcohol esters). This suspension was sprayed to the point of run-off on rice seedlings. The following day, the plants were inoculated with a mixture of bran and the mycelium of Rhizoctonia solani, causal agent of sheath blight of rice, and incubated in a growth room for 7 days. Disease ratings were then made. Treated plants from successful treatments had little sheath blight in contrast to untreated plants which were covered with sheath blight.

Assay [7] relates to Pyricularia oryzae. In words: whole plant or invertebrate. The conditions noted are these: 168 h, read-out: % Control of Rice Blast.
In assay [8] the test system is Phytophthora infestans. In words: whole plant or invertebrate. Particulars: Phytophthora infestans, in Solanum lycopersicum, 168 h, read-out: % Control of Tomato Late Blight.

As to `CCCCCCCCCCCCCCCCCC[Si](C)(C)Cn1ccnc1` [Dimethyl(1H-imidazol-1-ylmethyl)octadecylsilane], the pest or weed control at 100 ppm in assay [1] stood at 0%; in assay [2], 0%; in assay [3], 80%; in assay [4], 0%; in assay [5], 0%; in assay [6], 100%. For the same compound, the pest or weed control at 100 ppm turned out to be 80% in assay [7] and 0% in assay [8].

For `C[Si](Cn1ccnc1)(c1ccc(Cl)cc1Cl)c1ccc(Cl)cc1Cl` [bis(2,4-Dichlorophenyl)(1H-imidazol-1-ylmethyl)methylsilane], the pest or weed control at 100 ppm in assay [1] was 100%; in assay [2], 100%; in assay [3], 40%; in assay [4], 80%; in assay [5] it was 90%; in assay [6] it was 80%. Also, the pest or weed control at 100 ppm in assay [7] and in assay [8] was 0% each time.

As to `Clc1ccc([Si](Cn2ccnc2)(c2ccc(Cl)cc2)c2ccc(Cl)cc2)cc1` [tris(4-Chlorophenyl)(1H-imidazol-1-ylmethyl)silane], the pest or weed control at 100 ppm stood at 0% in assay [1]; 100% in assay [2]; 0% in assay [3]; 0% in assay [4]; 0% in assay [5]; 0% in assay [6]. In addition, the pest or weed control at 100 ppm in assay [7] and in assay [8] was 0% throughout.

As for `C[Si](C)(Cn1ccnc1)c1cccc(-c2ccccc2)c1` [(1,1'-Biphenyl-3-yl)dimethyl(1H-imidazol-1-ylmethyl)silane], the pest or weed control at 100 ppm in assay [1] stood at 90%; in assay [2] it was 0%; in assay [3], 90%; in assay [4], 90%; in assay [5], 80%; in assay [6], 90%. Further, the pest or weed control at 100 ppm in assay [7] is 80%; in assay [8], 0%.

Take `C[Si](C)(Cn1ccnc1)c1ccc(Br)cc1` [(4-Bromophenyl)(1H-imidazol-1-ylmethyl)dimethylsilane]: the pest or weed control at 100 ppm in assay [1] stood at 0%; in assay [2], 100%; in assay [3], 0%; in assay [4], 0%; in assay [5], 0%; in assay [6], 0%. For the same compound, the pest or weed control at 100 ppm amounted to 0% in assay [7] and 30% in assay [8].

`CC(C)(C)O[Si](C)(Cn1ccnc1)c1ccccc1` (centres unmarked) [(1,1-Dimethylethoxy)(1H-imidazol-1-ylmethyl)methyl(phenyl)silane]: the pest or weed control at 100 ppm was determined as 0% in assay [1]; 100% in assay [2]; 0% in assay [3]; 0% in assay [4]; 0% in assay [5]; 0% in assay [6]. Besides, the pest or weed control at 100 ppm in assay [7] and in assay [8] was 0% in each case.

With `O[Si](Cn1ccnc1)(c1ccc(Cl)cc1)c1ccc(Cl)cc1` [[bis(4-chlorophenyl)]hydroxy(1H-imidazol-1-ylmethyl)silane], the pest or weed control at 100 ppm was 80% in assay [1]; 100% in assay [2]; 0% in assay [3]; 0% in assay [4]; 50% in assay [5]; 0% in assay [6]. In addition, the pest or weed control at 100 ppm in assay [7] and in assay [8] was 0% each time.

Consider `Fc1ccc([Si](Cn2ccnc2)(c2ccc(F)cc2)c2ccc(F)cc2)cc1` [tris(4-Fluorophenyl)(1H-imidazol-1-ylmethyl)silane], for which the pest or weed control at 100 ppm is 80% in assay [1]; 100% in assay [2]; 0% in assay [3]; 0% in assay [4]; 0% in assay [5]; 0% in assay [6]. For the same compound, the pest or weed control at 100 ppm in assay [7] and in assay [8] was 0% throughout.

Consider `COc1ccc([Si](C)(Cn2ccnc2)c2ccc(OC)cc2)cc1` [(1H-Imidazol-1-ylmethyl)[bis(4-methoxyphenyl)]methylsilane], for which the pest or weed control at 100 ppm in assay [1] is 0%; in assay [2], 50%; in assay [3], 50%; in assay [4], 0%; in assay [5], 0%; in assay [6], 0%. Further, the pest or weed control at 100 ppm in assay [7] and in assay [8] was 0% throughout.

For the compound `C[Si](Cn1ccnc1)(c1ccc(-c2ccccc2)cc1)c1ccc(-c2ccccc2)cc1` [bis(1,1'-Biphenyl-4-yl)(1H-imidazol-1-ylmethyl)methylsilane], the pest or weed control at 100 ppm in assay [1] was found to be 0%; in assay [2], 0%; in assay [3], 50%; in assay [4] it was 0%; in assay [5] it was 60%; in assay [6], 0%. Besides, the pest or weed control at 100 ppm in assay [7] and in assay [8] was 0% in each case.

Turning to `C[Si](Cn1ccnc1)(c1ccccc1)c1ccc(-c2ccccc2)cc1` (centres unmarked) [(1,1'-Biphenyl-4-yl)(1H-imidazol-1-ylmethyl)methyl(phenyl)silane], the pest or weed control at 100 ppm is 100% in assay [1]; 100% in assay [2]; 0% in assay [3]; 80% in assay [4]; 80% in assay [5]; 0% in assay [6]. Also, the pest or weed control at 100 ppm in assay [7] and in assay [8] was 0% each time.

In the case of `COc1cccc(OC)c1[Si](C)(C)Cn1ccnc1` [(2,6-Dimethoxyphenyl)dimethyl(1H-imidazol-1-ylmethyl)silane], the pest or weed control at 100 ppm came out at 0% in assay [1]; 0% in assay [2]; 0% in assay [3]; 50% in assay [4]; 0% in assay [5]; 0% in assay [6]. Also, the pest or weed control at 100 ppm in assay [7] came to 0%; in assay [8], 50%.

Regarding `C[Si](Cn1ccnc1)(c1ccccc1Cl)c1ccccc1Cl` [[bis(2-Chlorophenyl)](1H-imidazol-1-ylmethyl)methylsilane], the pest or weed control at 100 ppm in assay [1] came to 0%; in assay [2] it was 100%; in assay [3] it was 60%; in assay [4], 90%; in assay [5], 100%; in assay [6] it was 40%. Besides, the pest or weed control at 100 ppm in assay [7] came to 90%; in assay [8] it was 60%.
